# Experimental data as given in patent publication US12077503B2, “Substituted cyclic amides and their use as herbicides” (FMC CORPORATION, priority 2015, dated 2024).
# Read-outs that look alike come from different tables or passages of the source.
# Tests used:
# Assay type in all cases: in vivo
# [1] = tested on: ragweed (common ragweed, Ambrosia elatior); assay: Test A preemergence; conditions: Ambrosia artemisiifolia, pre-emergence, 240 h; for pest or weed control at 125 g/ha: 125 g ai/ha, visual rating after approx. 10 d, 0 to 100 scale where 0 is no effect and 100 is complete control; for pest or weed control at 500 g/ha: 500 g ai/ha
# In short: (§1)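 Greenhouse, ~10 d after spray; visual injury vs untreated controls, 0 = no effect, 100 = complete control. Preemergence: directed soil spray over planted seeds. Postemergence: plants 2–10 cm, 1–2 leaf stage. Loam/sand blend. Compound in non-phytotoxic solvent with surfactant.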
# [2] = tested on: ryegrass, Italian (Italian ryegrass, Lolium multiflorum); assay: Test A preemergence; conditions: Lolium multiflorum, pre-emergence, 240 h; for pest or weed control at 125 g/ha: 125 g ai/ha, preemergence, visual rating after approx. 10 d, 0 to 100 scale where 0 is no effect and 100 is complete control, read-out: Plant response rating, Ryegrass, Italian; for pest or weed control at 500 g/ha: 500 g ai/ha, Preemergence, visual injury vs untreated controls after approximately 10 d, read-out: Ryegrass, Italian plant response rating (0 to 100 scale where 0 is no effect and 100 is complete control)
# In short: as §1
# [3] = tested on: barnyardgrass (Echinochloa crus-galli); assay: Test A preemergence; conditions: Echinochloa crus-galli, pre-emergence, 240 h; for pest or weed control at 125 g/ha: 125 g ai/ha, visual rating after approx. 10 d, 0 to 100 scale where 0 is no effect and 100 is complete control; for pest or weed control at 500 g/ha: 500 g ai/ha
# In short: as §1
# [4] = tested on: giant foxtail (Setaria faberii); assay: Test A preemergence; conditions: Setaria faberi, pre-emergence, 240 h; for pest or weed control at 125 g/ha: 125 g ai/ha, visual rating after approx. 10 d, 0 to 100 scale where 0 is no effect and 100 is complete control; for pest or weed control at 500 g/ha: 500 g ai/ha
# In short: as §1
# Kochia (Kochia scoparia) = assay: Test A preemergence; conditions: Bassia scoparia, pre-emergence, 240 h; for pest or weed control at 125 g/ha: 125 g ai/ha, visual rating after approx. 10 d, 0 to 100 scale where 0 is no effect and 100 is complete control; for pest or weed control at 500 g/ha: 500 g ai/ha
# In short: as §1
# [5] = tested on: pigweed (Amaranthus retroflexus); assay: Test A preemergence; conditions: Amaranthus retroflexus, pre-emergence, 240 h; for pest or weed control at 125 g/ha: 125 g ai/ha, visual rating after approx. 10 d, 0 to 100 scale where 0 is no effect and 100 is complete control; for pest or weed control at 500 g/ha: 500 g ai/ha
# [6] = tested on: sedge, umbrella (small-flower umbrella sedge, Cyperus difformis); assay: Test B flooded paddy test; conditions: Cyperus difformis, Flood, 250 g ai/ha; scale of 0 to 100 where 0 is no effect and 100 is complete control; read-out: Sedge, Umbrella plant response rating
# In short: (§2)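 Plants at 2-leaf stage flooded to 3 cm above soil, with compounds applied directly to paddy water and that depth maintained. Plants kept in greenhouse 13–15 d. Visual rating versus controls on a 0 (no effect) to 100 (complete control) scale.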
# [7] = tested on: barnyardgrass (Echinochloa crus-galli); assay: Test B flooded paddy test; conditions: Echinochloa crus-galli, Flood, 250 g ai/ha; scale of 0 to 100 where 0 is no effect and 100 is complete control; read-out: Barnyardgrass plant response rating
# In short: as §2
# rice (Oryra sativa) = assay: Test B flooded paddy test; conditions: Oryza sativa, Flood, 250 g ai/ha; scale of 0 to 100 where 0 is no effect and 100 is complete control; read-out: Rice plant response rating
# In short: as §2
# [8] = tested on: ducksalad (Heteranthera limosa); assay: Test B flooded paddy test; conditions: Heteranthera limosa, Flood, 250 g ai/ha; scale of 0 to 100 where 0 is no effect and 100 is complete control; read-out: Ducksalad plant response rating
# In short: as §2
# corn (Zea mays) = assay: Test A postemergence; conditions: Zea mays, post-emergence, 240 h, 125 g ai/ha, postemergence; visual injury after approximately 10 d; 0 to 100 scale (0 no effect, 100 complete control)
# In short: as §1
# [9] = tested on: wheat (Triticum aestivum); assay: Test A postemergence; conditions: Triticum aestivum, post-emergence, 240 h, 125 g ai/ha, postemergence; visual injury after approximately 10 d; 0 to 100 scale (0 no effect, 100 complete control); read-out: Plant response rating, Wheat
# In short: as §1
# [10] = tested on: ryegrass, Italian (Italian ryegrass, Lolium multiflorum); assay: Test A postemergence; conditions: Lolium multiflorum, post-emergence, 240 h, 125 g ai/ha, postemergence; visual injury after approximately 10 d; 0 to 100 scale (0 no effect, 100 complete control); read-out: Plant response rating, Ryegrass, Italian
# In short: as §1
# [11] = tested on: pigweed (Amaranthus retroflexus); assay: Test A postemergence; conditions: Amaranthus retroflexus, post-emergence, 240 h, 125 g ai/ha, postemergence; visual injury after approximately 10 d; 0 to 100 scale (0 no effect, 100 complete control); read-out: Plant response rating, Pigweed
# In short: as §1
# [12] = preemergence, read-out: Plant response rating, Ragweed
# [13] = preemergence, 0 to 100 scale, 0 = no effect, 100 = complete control, read-out: Plant response rating, Ragweed
# [14] = preemergence, read-out: Plant response rating, Barnyardgrass
# [15] = preemergence, 0 to 100 scale, 0 = no effect, 100 = complete control, read-out: Plant response rating, Barnyardgrass
# [16] = preemergence, read-out: Plant response rating, Foxtail, Giant
# [17] = preemergence, 0 to 100 scale, 0 = no effect, 100 = complete control, read-out: Plant response rating, Foxtail, Giant
# [18] = preemergence, read-out: Plant response rating, Kochia
# [19] = preemergence, 0 to 100 scale, 0 = no effect, 100 = complete control, read-out: Plant response rating, Kochia
# [20] = preemergence, read-out: Plant response rating, Pigweed
# [21] = preemergence, 0 to 100 scale, 0 = no effect, 100 = complete control, read-out: Plant response rating, Pigweed
# [22] = Preemergence, visual injury vs untreated controls after approximately 10 d, read-out: Ragweed plant response rating (0 to 100 scale where 0 is no effect and 100 is complete control)
# [23] = Preemergence, visual injury vs untreated controls after approximately 10 d, read-out: Barnyardgrass plant response rating (0 to 100 scale where 0 is no effect and 100 is complete control)
# [24] = Preemergence, visual injury vs untreated controls after approximately 10 d, read-out: Foxtail, Giant plant response rating (0 to 100 scale where 0 is no effect and 100 is complete control)
# [25] = Preemergence, visual injury vs untreated controls after approximately 10 d, read-out: Kochia plant response rating (0 to 100 scale where 0 is no effect and 100 is complete control)
# [26] = Preemergence, visual injury vs untreated controls after approximately 10 d, read-out: Pigweed plant response rating (0 to 100 scale where 0 is no effect and 100 is complete control)
smiles,measurement,setting,value
COc1cc([C@H]2CN(C)C(=O)[C@@H]2C(=O)Nc2ccccc2SC)ccc1C(F)(F)F [Compound 769],pest or weed control at 125 g/ha,[1]; [12],30%
same,pest or weed control at 500 g/ha,[1]; [13],70%
same,pest or weed control at 125 g/ha,[2],0%
same,pest or weed control at 125 g/ha,[3]; [14],70%
same,pest or weed control at 500 g/ha,[3]; [15],100%
same,pest or weed control at 125 g/ha,[4]; [16],90%
same,pest or weed control at 500 g/ha,[4]; [17],100%
same,pest or weed control at 125 g/ha,Kochia (Kochia scoparia); [18],30%
same,pest or weed control at 500 g/ha,Kochia (Kochia scoparia); [19],70%
same,pest or weed control at 125 g/ha,[5]; [20],30%
same,pest or weed control at 500 g/ha,[5]; [21],80%
same,pest or weed control at 250 g/ha,[6],0%
same,pest or weed control at 250 g/ha,[7],0%
same,pest or weed control at 250 g/ha,rice (Oryra sativa),15%
same,pest or weed control at 250 g/ha,[8],80%
same,"Corn plant response rating (crop injury, 0 = no effect, 100 = complete kill) at 125 g/ha",corn (Zea mays),0%
same,plant injury at 125 g/ha,[9],0%
same,pest or weed control at 125 g/ha,[10],30%
same,pest or weed control at 125 g/ha,[11],0%
Cc1ccc(NC(=O)[C@H]2C(=O)N(C)C[C@@H]2c2cc(F)cc(F)c2)c(F)c1F [Compound 771],pest or weed control at 125 g/ha,[1]; [12],0%
same,pest or weed control at 500 g/ha,[1]; [13],50%
same,pest or weed control at 125 g/ha,[2],40%
same,pest or weed control at 125 g/ha,[3]; [14],90%
same,pest or weed control at 500 g/ha,[3]; [15],90%
same,pest or weed control at 125 g/ha,[4]; [16],90%
same,pest or weed control at 500 g/ha,[4]; [17],90%
same,pest or weed control at 125 g/ha,Kochia (Kochia scoparia); [18],50%
same,pest or weed control at 500 g/ha,Kochia (Kochia scoparia); [19],80%
same,pest or weed control at 125 g/ha,[5]; [20],0%
same,pest or weed control at 500 g/ha,[5]; [21],0%
same,pest or weed control at 250 g/ha,[6],0%
same,pest or weed control at 250 g/ha,[7],90%
same,pest or weed control at 250 g/ha,rice (Oryra sativa),20%
same,pest or weed control at 250 g/ha,[8],100%
same,"Corn plant response rating (crop injury, 0 = no effect, 100 = complete kill) at 125 g/ha",corn (Zea mays),40%
same,plant injury at 125 g/ha,[9],30%
same,pest or weed control at 125 g/ha,[10],20%
same,pest or weed control at 125 g/ha,[11],0%
CN1C[C@H](c2nccs2)[C@@H](C(=O)Nc2ccccc2F)C1=O [Compound 773],pest or weed control at 125 g/ha,[1]; [12],0%
same,pest or weed control at 500 g/ha,[1]; [13],0%
same,pest or weed control at 125 g/ha,[2],0%
same,pest or weed control at 125 g/ha,[3]; [14],0%
same,pest or weed control at 500 g/ha,[3]; [15],0%
same,pest or weed control at 125 g/ha,[4]; [16],0%
same,pest or weed control at 500 g/ha,[4]; [17],0%
same,pest or weed control at 125 g/ha,Kochia (Kochia scoparia); [18],0%
same,pest or weed control at 500 g/ha,Kochia (Kochia scoparia); [19],0%
same,pest or weed control at 125 g/ha,[5]; [20],0%
same,pest or weed control at 500 g/ha,[5]; [21],0%
same,pest or weed control at 250 g/ha,[6],0%
same,pest or weed control at 250 g/ha,[7],0%
same,pest or weed control at 250 g/ha,rice (Oryra sativa),0%
same,pest or weed control at 250 g/ha,[8],0%
same,"Corn plant response rating (crop injury, 0 = no effect, 100 = complete kill) at 125 g/ha",corn (Zea mays),0%
same,plant injury at 125 g/ha,[9],0%
same,pest or weed control at 125 g/ha,[10],0%
same,pest or weed control at 125 g/ha,[11],0%
CN1C[C@H](c2nccs2)[C@@H](C(=O)Nc2cccc(F)c2F)C1=O [Compound 774],pest or weed control at 125 g/ha,[1]; [12],0%
same,pest or weed control at 500 g/ha,[1]; [22],0%
same,pest or weed control at 125 g/ha,[2],0%
same,pest or weed control at 500 g/ha,[2],0%
same,pest or weed control at 125 g/ha,[3]; [14],0%
same,pest or weed control at 500 g/ha,[3]; [23],0%
same,pest or weed control at 125 g/ha,[4]; [16],0%
same,pest or weed control at 500 g/ha,[4]; [24],0%
same,pest or weed control at 125 g/ha,Kochia (Kochia scoparia); [18],0%
same,pest or weed control at 500 g/ha,Kochia (Kochia scoparia); [25],0%
same,pest or weed control at 125 g/ha,[5]; [20],0%
same,pest or weed control at 500 g/ha,[5]; [26],0%
same,pest or weed control at 250 g/ha,[6],0%
same,pest or weed control at 250 g/ha,[7],0%
same,pest or weed control at 250 g/ha,rice (Oryra sativa),0%
same,pest or weed control at 250 g/ha,[8],0%
same,"Corn plant response rating (crop injury, 0 = no effect, 100 = complete kill) at 125 g/ha",corn (Zea mays),0%
same,plant injury at 125 g/ha,[9],0%
same,pest or weed control at 125 g/ha,[10],0%
same,pest or weed control at 125 g/ha,[11],0%
O=C1NC[C@H](c2ccc3c(c2)CCO3)[C@H]1C(=O)Nc1ccccc1F [Compound 786],pest or weed control at 125 g/ha,[1]; [12],0%
same,pest or weed control at 500 g/ha,[1]; [22],0%
same,pest or weed control at 125 g/ha,[2],0%
same,pest or weed control at 500 g/ha,[2],0%
same,pest or weed control at 125 g/ha,[3]; [14],80%
same,pest or weed control at 500 g/ha,[3]; [23],90%
same,pest or weed control at 125 g/ha,[4]; [16],90%
same,pest or weed control at 500 g/ha,[4]; [24],90%
same,pest or weed control at 125 g/ha,Kochia (Kochia scoparia); [18],0%
same,pest or weed control at 500 g/ha,Kochia (Kochia scoparia); [25],0%
same,pest or weed control at 125 g/ha,[5]; [20],0%
same,pest or weed control at 500 g/ha,[5]; [26],0%
same,pest or weed control at 250 g/ha,[6],40%
same,pest or weed control at 250 g/ha,[7],0%
same,pest or weed control at 250 g/ha,rice (Oryra sativa),0%
same,pest or weed control at 250 g/ha,[8],70%
same,"Corn plant response rating (crop injury, 0 = no effect, 100 = complete kill) at 125 g/ha",corn (Zea mays),0%
same,plant injury at 125 g/ha,[9],0%
same,pest or weed control at 125 g/ha,[10],0%
same,pest or weed control at 125 g/ha,[11],0%
